According to patent US4598081A, “1,3-dioxo-1H-benz(de)isoquinoline-2(3H) butyric acid, pharmacologically acceptable salts thereof and compositions containing the same for treatment of diabetes mellitus complications” (Nauchno-Issledovatelsky Institut Endokrinologii I Obmena …, priority 1985, dated 1986):
“Also recorded” adds a separate entry of the source. Where a name gives a salt, the structure may show the parent alone.

What was measured:
[1] = solubility of the acid and its salts; format: physicochemical
White mice = test: acute ("high") toxicity, peroral, white mice
Procedure: (§1) Mature animals both male and female, weighting 18 to 22 g (white mice), 180 to 220 g (rats), 11 to 15 kg (dogs) were used for said experiments.
(§2) The drug was introduced in the form of a starch suspension through a gastric tube.
(§3) Each dose being examined was tested on 5-6 animals.
(§4) LD50 determined by the Lichfield and Wilcoxon method, or the Van der Waerden method was used as an index of high toxicity. The animals were kept under observation for 5 days.

Rats [2] = test: acute ("high") toxicity, peroral, rats
Procedure: as §1, §2, §3, §4

Dogs [3] = test: acute ("high") toxicity, peroral, dogs; details: dosage 5500
Procedure: as §1, §2, §3, §4

[4] = system: white mice, rats, and dogs; test: acute ("high") toxicity, symptoms and overall assessment in mice, rats and dogs
Procedure: as §1, §2, §3, §4

Dogs [5] = test: chronic toxicity, 6 months peroral, dogs; details: in the dogs only
Procedure: (§5) The experiments were performed on rats, rabbits, and dogs.
(§6) In addition, the action of the proposed drug on the carbohydrate and uropoiesis functions of the liver was also examined.
(§7) The above indices were examined at the beginning of the experiment and then after 1, 2, 3, 4, 5, and 6 months.
(§8) At the end of the experiments there were carried out pathomorphological examinations of the lungs, heart, liver, kidneys, adrenal glands, spleen, lymph nodes, intestine, stomach, pancreas, and thyroid glands.
(§9) On completion of the experiment (six months) the experimental animals were killed: the dogs were killed with thiopental, the rabbits with aeroembolism, and the rats with diethyl ether. Thereafter, the lungs, heart, liver, kidneys, adrenal glands, spleen, lymph nodes, intestine, pancreas and thyroid gland of the killed animals were examined. The material thus obtained was fixed in formole. There were prepared paraffin sections which were then stained with hematoxylin and eosin.

Rats [6] = details: rat, in vivo
Procedure: as §5, §6, §7, §8, §9

rats, rabbits, and dogs = details: in vivo
Procedure: as §5, §6, §7, §8, §9

[7] = system: rats having alloxan diabetes; test: histological examination and biomicroscopy in rats with prolonged alloxan diabetes; format: in vivo, Wistar rats; details: for biochemical and morphological indices: experimental animals
Procedure: The diabetes was caused by a single-time hypodermic injection of alloxan ("Chemapol") in a dose of 150 mg per kg of body weight.
Biomicroscopy of the conjunctiva was effected with the aid of a microscope fitted with a camera and a flash lamp.
For histological examination pieces of the kidney, liver and miocardium were fixed in 10% neutral formaline dehydrated in alcohol, and the paraffin sections were stained with hematoxylin and eosin, and also by the Van-Gizon method.

[8] = system: basal membrane of the muscle capillaries; test: thickness of capillary basal membrane of limb muscles (electron microscope) in rats with alloxan diabetes; format: in vivo, Wistar rats; details: for biological activity compared with 1,3-dioxo-1H-benz(de)isoquinoline-2(3H)acetic acid: comparison with prior art compound; for thickness of the basal membrane of the muscle capillaries: after treatment; for average thickness of the capillary basal membrane of the limb muscles, after administration (M): rats, alloxan diabetes, end of the experiment
aldose reductase = test: activity of aldose reductase in tissues of animals with alloxan diabetes; format: in vivo, Wistar rats; details: for Activity of aldose reductase: alloxan diabetes + compound; for inhibition of aldose reductase: tissues of the experimental animals
Procedure: (§10) The experiments were conducted on Wistar rats (males) having a weight of 140 to 160 g. The diabetes was caused by a single-time hypodermic injection of alloxan ("Chemapol") in a dose of 150 mg per kg of body weight.
(§11) The glood glucose was determined by applying a glucoseoxidase method, cholesterine by […], aldose reductase by the method of Hayman and Kinoshita, sorbitol by a sorbitol-dehydrogenase method.

[9] = system: sorbitol and fructose in tissues; test: sorbitol and fructose in tissues of animals with alloxan diabetes; format: in vivo, Wistar rats; details: for Fructose / Sorbitol: alloxan diabetes
Procedure: as §10, §11

[10] = blood indices (fructose, cholesterin, glucose) in rats with alloxan diabetes; format: in vivo, Wistar rats
Procedure: as §10, §11

SMILES: O=C(O)CCCN1C(=O)c2cccc3cccc(c23)C1=O [1,3-dioxo-1H-benz(de)isoquinoline-2(3H)butyric acid]
- solubility in alcohol ([1]; alcohol, when heated): soluble
- solubility in dimethyl-formamide ([1]; dimethyl-formamide, when heated): soluble
- solubility in soda and alkali solutions ([1]; soda and alkali solutions): soluble in soda and alkali solutions
- solubility in water [1]: water-insoluble
- Percentage of animal death (died/in group) (White mice; dosage 3750): 3/5
- Percentage of animal death (died/in group) (White mice; dosage 4000): 2/5
- Percentage of animal death (died/in group) (White mice; dosage 4500): 4/5
- Percentage of animal death (died/in group) (White mice; dosage 4750): 5/5
- Percentage of animal death (died/in group) (White mice; dosage 5000): 3/5
- Percentage of animal death (died/in group) (White mice; dosage 5250): 5/5
- Percentage of animal death (died/in group) (Rats [2]; dosage 3000): 0/5
- Percentage of animal death (died/in group) (Rats [2]; dosage 3500): 2/5
- Percentage of animal death (died/in group) (Rats [2]; dosage 4000): 1/4
- Percentage of animal death (died/in group) (Rats [2]; dosage 4500): 3/5
- Percentage of animal death (died/in group) (Rats [2]; dosage 5000): 4/7
- Percentage of animal death (died/in group) (Rats [2]; dosage 5500): 4/5
- Percentage of animal death (died/in group) (Rats [2]; dosage 6000): 5/5
- Percentage of animal death (died/in group) (Dogs [3]): 3/5
- time until animals laid down on the side, comatose ([4]; acute lethal poisoning): 6 to 8 h
- time within which the animals died ([4]; as a rule, during the first 24-26 hours): 24 to 26 h
- overall acute toxicity assessment ([4]; peroral): substance with low-toxicity
- vessel permeability in the renal glomerulus (Dogs [5]): elevated vessel permeability in the renal glomerulus
- change in blood-formation function, composition of the peripheric blood and urogenous function of the liver (Rats [6]): did not lead to a change
- changes in the anthropological data (rats, rabbits, and dogs): no changes in the anthropological data
- irritating action on the liver and kidneys (rats, rabbits, and dogs): slight non-specific irritating action on the liver and kidneys
- lesions in the liver and kidneys (rats, rabbits, and dogs): slight lesions in the liver and kidneys
- lesions on dissection (rats, rabbits, and dogs): no lesions
- local lesion in the liver and kidneys (rats, rabbits, and dogs): slight local lesion in the liver and kidneys
- morphological lesions in organs (rats, rabbits, and dogs): did not cause morphological lesions in many organs
- kidney histology ([7]; 50 mg per kg per day, 30 days): renal glomerulus became more plethoric, the epithelium of the tubules had a more clearly defined boundary, and the protoplasm became less vacuolized and granular
- liver histology ([7]; 50 mg per kg per day, 30 days): structure of the lobes and radial location of trabeculas in the liver became clearly defined
- myocardium histology ([7]; 50 mg per kg per day, 30 days): Dystrophic lesion in the myocardium was less pronounced
- vascular pattern of the iris ([7]; 50 mg per kg per day, 30 days): Inflation and convolution of the vessels decreased, and the blood flow became homogeneous
- biochemical and morphological indices [7]: considerable improvements
- decrease of thickness of the basal membrane of the muscle capillaries ([8]; 50 mg per kg per day, 30 days): almost one and a half times
- microangiopathy ([8]; 50 mg per kg per day, 30 days): Microangiopathy became less pronounced
- biological activity compared with 1,3-dioxo-1H-benz(de)isoquinoline-2(3H)acetic acid [8]: biologically more active than the prior art compound
- thickness of the basal membrane of the muscle capillaries ([8]; rats having alloxan diabetes for 12 months): 100-120 nm
- thickness of the basal membrane of the muscle capillaries ([8]; rats having six months alloxan diabetes): 65 nm
- average thickness of the capillary basal membrane of the limb muscles, after administration (M) [8]: 98.3 nanometers
- Activity of aldose reductase (aldose reductase; Aorta): 7.4 ± 0.8 μmol substruct. per mg of protein
- Activity of aldose reductase (aldose reductase; Cryst. lens): 3.4 ± 0.30 μmol substruct. per mg of protein
- Activity of aldose reductase (aldose reductase; Nerve): 25.5 ± 2.1 μmol substruct. per mg of protein
- inhibition of aldose reductase (aldose reductase): inhibiting properties with respect to aldose reductase; also recorded: inhibitors of aldose reductase
- Fructose ([9]; Cryst. lens): 2.85 ± 0.56 μmol per g of tissue
- Sorbitol ([9]; Cryst. lens): 7.18 ± 0.65 μmol per g of tissue
- Fructose ([9]; Nerve): 3.25 ± 0.73 μmol per g of tissue
- Sorbitol ([9]; Nerve): 9.8 ± 0.94 μmol per g of tissue
- quantity of sorbitol and fructose in the examined tissues ([9]; Table 5): has decreased
- change of the level of glucose (blood) [10]: did not change
- cholesterin (blood) ([10]; p<0.005): 100±7.1 mg %
- fructose (blood) ([10]; p<0.02): 2.26±0.16 mg %
- level of glucose (blood) ([10]; p<0.5): 340.1±27.8 mg %

SMILES: O=C(O)CCCN1C(=O)c2cccc3cccc(c23)C1=O [Potassium salt, potassium salt of 1,3-dioxo-1H-benz(de)isoquinoline-2(3H)butyric acid]
- solubility in benzole [1]: insoluble
- solubility in ethyl alcohol [1]: soluble
- solubility in water [1]: readily soluble
- biochemical and morphological indices [7]: considerable improvements
- biological activity compared with 1,3-dioxo-1H-benz(de)isoquinoline-2(3H)acetic acid [8]: biologically more active than the prior art compound
- average thickness of the capillary basal membrane of the limb muscles, after administration (M) [8]: 98.6 nanometers
- inhibition of aldose reductase (aldose reductase): inhibiting properties with respect to aldose reductase; also recorded: inhibitors of aldose reductase

SMILES: O=C(O)CN1C(=O)c2cccc3cccc(c23)C1=O [1,3-dioxo-1H-benz(de)isoquinoline-2(3H)acetic acid, reference compound]
- average thickness of the capillary basal membrane of the limb muscles, after administration (M) [8]: 112 nanometers

SMILES: O=C(O)CCCN1C(=O)c2cccc3cccc(c23)C1=O [Sodium salt, sodium salt of 1,3-dioxo-1H-benz(de)isoquinoline-2(3H)butyric acid]
- solubility in benzole [1]: insoluble
- solubility in ethyl alcohol [1]: slightly soluble
- solubility in water [1]: readily soluble
- biochemical and morphological indices [7]: considerable improvements
- biological activity compared with 1,3-dioxo-1H-benz(de)isoquinoline-2(3H)acetic acid [8]: biologically more active than the prior art compound
- average thickness of the capillary basal membrane of the limb muscles, after administration (M) [8]: 102 nanometers
- inhibition of aldose reductase (aldose reductase): inhibiting properties with respect to aldose reductase; also recorded: inhibitors of aldose reductase
